Data from US20240316022A1 (TYRA BIOSCIENCES, INC., priority 2021, published 2024).
Where two headings read alike, the source gives them in different places.

Columns and labels:
Assay in all cases: Kinase binding assay (kinase-tagged T7 phage, qPCR), Kd
[1] = molecular target: T1, FGFR3 (Homo sapiens, UniProt P22607); details: read-out: FGFR3 (Kd nM)
T1 construct: made in house; host or cells: E. coli derived from BL21, infected with T7 phage
Method: (§1) Kinase-tagged T7 phage strains were prepared in an E. coli host derived from the BL21 strain. E. coli were grown to log-phase and infected with T7 phage and incubated with shaking at 32° C. until lysis. The lysates were centrifuged and filtered to remove cell debris. Streptavidin-coated magnetic beads were treated with biotinylated small molecule ligands for 30 minutes at room temperature to generate affinity resins for kinase assays. The liganded beads were blocked with excess biotin and washed with blocking buffer SeaBlock (Pierce), 1% BSA, 0.05% Tween 20, 1 mM DTT to remove unbound ligand and to reduce non-specific binding. Binding reactions were assembled by combining kinases, liganded affinity beads, and test compounds in 1× binding buffer (20% SeaBlock, 0.17×PBS, 0.05% Tween 20, 6 mM DTT).
(§2) Test compounds were prepared as 111X stocks in 100% DMSO. Kds were determined using an 11-point 3-fold compound dilution series with three DMSO control points. All compounds for Kd measurements are distributed by acoustic transfer (non-contact dispensing) in 100% DMSO. The compounds were then diluted directly into the assays such that the final concentration of DMSO was 0.9%. All reactions performed in polypropylene 384-well plate. Each was a final volume of 0.02 ml. The assay plates were incubated at room temperature with shaking for 1 hour and the affinity beads were washed with wash buffer (1×PBS, 0.05% Tween 20). The beads were then re-suspended in elution buffer (1×PBS, 0.05% Tween 20, 0.5 μM non-biotinylated affinity ligand) and incubated at room temperature with shaking for 30 minutes. The kinase concentration in the eluates was measured by qPCR.
(§3) Binding constants were calculated with a standard dose-response curve using the Hill equation: […]
(§4) The Hill Slope was set to −1. Curves were fitted using a non-linear least square fit with the Levenberg-Marquardt algorithm.

[2] = molecular target: T2, FGFR4 (Homo sapiens, UniProt P22455); details: read-out: FGFR4 (Kd nM)
T2 construct: made in house; host or cells: E. coli derived from BL21, infected with T7 phage
Method: as §1, §2, §3, §4

[3] = molecular target: T3, FGFR1 (Homo sapiens, UniProt P11362); details: read-out: FGFR1 (Kd nM)
T3 construct: made in house; host or cells: E. coli derived from BL21, infected with T7 phage
Method: (§5) Kinase-tagged T7 phage strains were prepared in an E. coli host derived from the BL21 strain. E. coli were grown to log-phase and infected with T7 phage and incubated with shaking at 32° C. until lysis. The lysates were centrifuged and filtered to remove cell debris. […] The liganded beads were blocked with excess biotin and washed with blocking buffer SeaBlock (Pierce), 1% BSA, 0.05% Tween 20, 1 mM DTT to remove unbound ligand and to reduce non-specific binding.
(§6) Kds were determined using an 11-point 3-fold compound dilution series with three DMSO control points. […] The compounds were then diluted directly into the assays such that the final concentration of DMSO was 0.9%. All reactions performed in polypropylene 384-well plate. Each was a final volume of 0.02 ml. […] The kinase concentration in the eluates was measured by qPCR.
as §3, §4

[4] = molecular target: T4, FGFR2 (Homo sapiens, UniProt P21802); details: read-out: FGFR2 (Kd nM)
T4 construct: made in house; host or cells: E. coli derived from BL21, infected with T7 phage
Method: as §5, §6, §3, §4

T4 sequence (P21802 22-821): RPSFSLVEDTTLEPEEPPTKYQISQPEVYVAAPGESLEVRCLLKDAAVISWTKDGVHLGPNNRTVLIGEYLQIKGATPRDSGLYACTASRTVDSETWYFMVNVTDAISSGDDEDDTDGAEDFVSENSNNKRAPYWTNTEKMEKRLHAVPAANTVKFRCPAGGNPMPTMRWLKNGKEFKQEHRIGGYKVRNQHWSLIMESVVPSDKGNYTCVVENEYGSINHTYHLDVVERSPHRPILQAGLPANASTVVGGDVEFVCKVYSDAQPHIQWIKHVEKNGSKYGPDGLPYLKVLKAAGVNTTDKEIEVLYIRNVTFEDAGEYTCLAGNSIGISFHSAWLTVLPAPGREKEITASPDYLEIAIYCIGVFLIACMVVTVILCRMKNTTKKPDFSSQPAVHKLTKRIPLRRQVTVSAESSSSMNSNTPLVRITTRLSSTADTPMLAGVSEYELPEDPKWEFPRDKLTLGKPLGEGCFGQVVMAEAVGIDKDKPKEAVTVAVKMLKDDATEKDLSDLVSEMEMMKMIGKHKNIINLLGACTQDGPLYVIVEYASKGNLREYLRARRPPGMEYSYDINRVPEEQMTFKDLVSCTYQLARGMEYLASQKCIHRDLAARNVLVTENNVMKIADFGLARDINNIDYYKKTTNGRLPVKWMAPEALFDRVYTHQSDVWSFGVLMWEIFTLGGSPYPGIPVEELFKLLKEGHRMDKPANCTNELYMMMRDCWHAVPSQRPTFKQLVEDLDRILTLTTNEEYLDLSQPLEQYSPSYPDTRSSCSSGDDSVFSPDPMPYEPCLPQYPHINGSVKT
T1 sequence (P22607 23-806): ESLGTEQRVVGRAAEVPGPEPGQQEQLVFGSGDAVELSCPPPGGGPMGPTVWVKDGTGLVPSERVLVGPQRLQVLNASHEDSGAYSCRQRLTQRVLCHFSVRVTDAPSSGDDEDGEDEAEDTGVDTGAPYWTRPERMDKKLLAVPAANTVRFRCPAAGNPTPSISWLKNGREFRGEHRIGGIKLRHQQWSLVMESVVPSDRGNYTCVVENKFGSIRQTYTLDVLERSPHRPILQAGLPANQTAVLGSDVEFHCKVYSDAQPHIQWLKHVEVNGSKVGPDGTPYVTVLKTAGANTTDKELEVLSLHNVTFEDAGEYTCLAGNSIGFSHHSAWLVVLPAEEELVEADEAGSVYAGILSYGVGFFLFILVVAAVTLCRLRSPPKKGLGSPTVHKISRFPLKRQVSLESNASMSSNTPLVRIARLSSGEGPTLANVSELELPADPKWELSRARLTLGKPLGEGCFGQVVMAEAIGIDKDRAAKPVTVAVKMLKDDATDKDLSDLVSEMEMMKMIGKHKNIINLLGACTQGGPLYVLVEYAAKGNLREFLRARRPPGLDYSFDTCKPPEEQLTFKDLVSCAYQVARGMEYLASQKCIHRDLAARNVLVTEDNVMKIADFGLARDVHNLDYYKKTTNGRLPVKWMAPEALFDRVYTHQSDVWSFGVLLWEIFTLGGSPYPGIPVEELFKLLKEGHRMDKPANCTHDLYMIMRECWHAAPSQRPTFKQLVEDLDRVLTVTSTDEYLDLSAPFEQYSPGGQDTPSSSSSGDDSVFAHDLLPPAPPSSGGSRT
T2 sequence (P22455 22-802): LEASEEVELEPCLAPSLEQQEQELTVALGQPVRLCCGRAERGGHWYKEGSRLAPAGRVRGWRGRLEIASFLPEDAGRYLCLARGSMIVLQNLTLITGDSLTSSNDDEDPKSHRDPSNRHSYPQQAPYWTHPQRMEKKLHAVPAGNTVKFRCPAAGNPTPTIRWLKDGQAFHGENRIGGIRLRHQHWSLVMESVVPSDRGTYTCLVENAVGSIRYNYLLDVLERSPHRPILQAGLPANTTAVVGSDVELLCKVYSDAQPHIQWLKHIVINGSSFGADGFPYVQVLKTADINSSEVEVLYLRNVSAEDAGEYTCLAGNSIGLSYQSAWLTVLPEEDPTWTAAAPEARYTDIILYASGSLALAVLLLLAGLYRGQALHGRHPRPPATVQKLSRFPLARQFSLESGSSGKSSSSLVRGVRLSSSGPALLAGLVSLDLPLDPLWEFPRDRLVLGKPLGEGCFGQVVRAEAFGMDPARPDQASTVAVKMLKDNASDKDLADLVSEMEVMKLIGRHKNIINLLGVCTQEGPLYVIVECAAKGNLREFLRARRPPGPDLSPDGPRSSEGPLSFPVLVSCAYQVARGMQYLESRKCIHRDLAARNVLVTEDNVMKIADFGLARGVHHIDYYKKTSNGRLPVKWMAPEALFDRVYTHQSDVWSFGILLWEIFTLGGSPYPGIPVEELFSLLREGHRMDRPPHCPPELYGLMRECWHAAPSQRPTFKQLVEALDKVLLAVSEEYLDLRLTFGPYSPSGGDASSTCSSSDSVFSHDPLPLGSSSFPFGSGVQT
T3 sequence (P11362 22-822): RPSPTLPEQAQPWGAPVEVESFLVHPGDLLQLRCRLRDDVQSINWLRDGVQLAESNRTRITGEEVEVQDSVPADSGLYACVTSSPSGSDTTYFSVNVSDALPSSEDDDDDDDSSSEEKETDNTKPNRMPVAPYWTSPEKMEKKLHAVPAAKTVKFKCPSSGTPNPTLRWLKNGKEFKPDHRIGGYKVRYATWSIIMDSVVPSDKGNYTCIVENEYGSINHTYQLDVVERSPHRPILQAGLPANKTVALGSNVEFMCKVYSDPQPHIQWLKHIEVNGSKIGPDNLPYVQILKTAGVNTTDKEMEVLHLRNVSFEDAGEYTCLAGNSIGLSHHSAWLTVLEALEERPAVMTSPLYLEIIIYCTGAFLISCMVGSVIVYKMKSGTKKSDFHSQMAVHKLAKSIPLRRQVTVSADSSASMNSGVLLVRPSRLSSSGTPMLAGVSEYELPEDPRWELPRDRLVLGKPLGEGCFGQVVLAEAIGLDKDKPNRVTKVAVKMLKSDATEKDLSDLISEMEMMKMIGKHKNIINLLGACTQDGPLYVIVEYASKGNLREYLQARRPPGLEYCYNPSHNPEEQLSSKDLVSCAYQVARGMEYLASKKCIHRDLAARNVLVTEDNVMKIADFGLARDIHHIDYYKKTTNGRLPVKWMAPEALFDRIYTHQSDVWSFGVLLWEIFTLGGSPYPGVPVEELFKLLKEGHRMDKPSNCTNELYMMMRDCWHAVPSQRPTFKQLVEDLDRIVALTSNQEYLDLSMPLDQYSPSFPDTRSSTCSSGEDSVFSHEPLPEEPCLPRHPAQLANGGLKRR

Kd [1] [nM] | Kd [2] [nM] | Kd [3] [nM] | Kd [4] [nM] | Kd ([3]; given as a number, not a class symbol) [nM] | SMILES
0.1 to 100 | 0.1 to 100 | 100 to 250 | 0.1 to 100 | – | COc1c(C)cc(-c2n[nH]c3ccc(O[C@H](C)c4c(C)cnnc4C)cc23)cc1C#N [Example 80, 5-[5-[(1R)-1-(3,5-dimethylpyridazin-4-yl)ethoxy]-1H-indazol-3-yl]-2-methoxy-3-methyl-benzonitrile]
0.1 to 100 | 0.1 to 100 | 0.1 to 100 | 0.1 to 100 | – | CCN1CCC(Oc2c(C)cc(-c3n[nH]c4ccc(O[C@H](C)c5c(C)cnnc5C)cc34)cc2C#N)CC1 [Example 115, (R)-5-(5-(1-(3,5-dimethylpyridazin-4-yl)ethoxy)-1H-indazol-3-yl)-2-((1-ethylpiperidin-4-yl)oxy)-3-methylbenzonitrile]
0.1 to 100 | 0.1 to 100 | 100 to 250 | 0.1 to 100 | – | C[C@@H](Oc1ccc2[nH]nc(-c3cnc(O[C@H]4CCOC4)c(C#N)c3)c2c1)c1c(Cl)cncc1Cl [Example 133, 5-(5-((R)-1-(3,5-dichloropyridin-4-yl)ethoxy)-1H-indazol-3-yl)-2-(((S)-tetrahydrofuran-3-yl)oxy)nicotinonitrile]
100 to 250 | 0.1 to 100 | 250 to 1000 | 250 to 1000 | – | COc1cc2[nH]nc(-c3cnc4c(c3)N(S(C)(=O)=O)CCO4)c2cc1O[C@H](C)c1c(Cl)cncc1Cl [Example 140, 7-[5-[(1R)-1-(3,5-dichloro-4-pyridyl)ethoxy]-6-methoxy-1H-indazol-3-yl]-1-methylsulfonyl-2,3-dihydropyrido[2,3-b][1,4]oxazine]
0.1 to 100 | 0.1 to 100 | 100 to 250 | 250 to 1000 | – | CC(C)OC(=O)Nc1ccc(-c2n[nH]c3ccc(O[C@H](C)c4c(Cl)cncc4Cl)cc23)cn1 [Example 27, isopropyl N-[5-[5-[(1R)-1-(3,5-dichloro-4-pyridyl)ethoxy]-1H-indazol-3-yl]-2-pyridyl]carbamate]
250 to 1000 | 0.1 to 100 | > 1000 | > 1000 | – | C[C@@H](Oc1ccc2[nH]nc(-c3cnc4c(c3)N(C(=O)CN(C)C)CCO4)c2c1)c1c(Cl)cncc1Cl [Example 21, 1-[7-[5-[(1R)-1-(3,5-dichloro-4-pyridyl)ethoxy]-1H-indazol-3-yl]-2,3-dihydropyrido[2,3-b][1,4]oxazin-1-yl]-2-(dimethylamino)ethanone]
100 to 250 | 0.1 to 100 | 250 to 1000 | 250 to 1000 | – | COc1ncc(-c2n[nH]c3ccc(O[C@H](C)c4c(C)cnnc4C)cc23)cc1C#N [Example 88, 5-[5-[(1R)-1-(3,5-dimethylpyridazin-4-yl)ethoxy]-1H-indazol-3-yl]-2-methoxy-pyridine-3-carbonitrile]
250 to 1000 | 0.1 to 100 | > 1000 | > 1000 | – | COc1c(C#N)cc(-c2n[nH]c3ccc(O[C@H](C)c4c(C)cnnc4C)cc23)cc1C#N [Example 85, 5-[5-[(1R)-1-(3,5-dimethylpyridazin-4-yl)ethoxy]-1H-indazol-3-yl]-2-methoxy-benzene-1,3-dicarbonitrile]
0.1 to 100 | 0.1 to 100 | – | 100 to 250 | 45 | CCN1CCC2(CC1)CC(O)c1cc(-c3n[nH]c4ccc(O[C@H](C)c5c(Cl)cncc5Cl)cc34)ccc1O2 (stereo partly drawn) [Example 103, 6-[5-[(1R)-1-(3,5-Dichloro-4-pyridyl)ethoxy]-1H-indazol-3-yl]-1′-ethyl-spiro[chromane-2,4′-piperidine]-4-ol]
0.1 to 100 | 0.1 to 100 | 100 to 250 | 100 to 250 | – | Cc1ncc(Cl)c([C@@H](C)Oc2ccc3[nH]nc(-c4ccc5c(c4)COC4(CCN(CC(F)(F)F)CC4)O5)c3c2)c1Cl [Example 167, 6-[5-[(1R)-1-(3,5-dichloro-2-methyl-4-pyridyl)ethoxy]-1H-indazol-3-yl]-1′-(2,2,2-trifluoroethyl)spiro[4H-1,3-benzodioxine-2,4′-piperidine]]
0.1 to 100 | 0.1 to 100 | 0.1 to 100 | 0.1 to 100 | – | COc1cc(-c2n[nH]c3ccc(O[C@H](C)c4c(C)cnnc4C)cc23)cc2c1OC1(CCN(C(C)C)CC1)OC2 [Example 125, (R)-6-(5-(1-(3,5-dimethylpyridazin-4-yl)ethoxy)-1H-indazol-3-yl)-1′-isopropyl-8-methoxy-4H-spiro[benzo[d][1,3]dioxine-2,4′-piperidine]]
> 1000 | 100 to 250 | > 1000 | > 1000 | – | Cc1cnnc(C)c1[C@@H](C)Oc1ccc2[nH]nc(-c3cc(C#N)cc(N4CCN(C)CC4)c3)c2c1 [Example 62, 3-[5-[(1R)-1-(3,5-dimethylpyridazin-4-yl)ethoxy]-1H-indazol-3-yl]-5-(4-methylpiperazin-1-yl)benzonitrile]
250 to 1000 | 0.1 to 100 | > 1000 | > 1000 | – | Cc1cccc(C(=O)N2CCOc3ncc(-c4n[nH]c5ccc(O[C@H](C)c6c(Cl)cncc6Cl)cc45)cc32)n1 [Example 39, [7-[5-[(1R)-1-(3,5-dichloro-4-pyridyl)ethoxy]-1H-indazol-3-yl]-2,3-dihydro-pyrido[2,3-b][1,4]oxazin-1-yl]-(6-methyl-2-pyridyl)methanone]
> 1000 | > 1000 | > 1000 | > 1000 | – | Cc1cnnc(C)c1[C@H](C)Oc1ccc2[nH]nc(-c3cc(C#N)cc(N4CC5(CN(C)C5)C4)c3)c2c1 [Example 91, (S)-3-(5-(1-(3,5-dimethylpyridazin-4-yl)ethoxy)-1H-indazol-3-yl)-5-(6-methyl-2,6-diazaspiro[3.3]heptan-2-yl)benzonitrile]
0.1 to 100 | 0.1 to 100 | 100 to 250 | 100 to 250 | – | COc1ncc(-c2n[nH]c3ccc(O[C@H](C)c4c(Cl)cncc4Cl)cc23)cc1N [Example 1, 5-[5-[(1R)-1-(3,5-dichloro-4-pyridyl)ethoxy]-1H-indazol-3-yl]-2-methoxy-pyridin-3-amine]
250 to 1000 | 250 to 1000 | > 1000 | 250 to 1000 | – | Cc1cnnc(C)c1[C@@H](C)Oc1ccc2[nH]nc(-c3cc(C#N)cc(N4CC5(CN(C)C5)C4)c3)c2c1 [Example 87, 3-[5-[(1R)-1-(3,5-dimethylpyridazin-4-yl)ethoxy]-1H-indazol-3-yl]-5-(6-methyl-2,6-diazaspiro[3.3]heptan-2-yl)benzonitrile]
0.1 to 100 | 0.1 to 100 | 100 to 250 | 0.1 to 100 | – | Cc1cc(-c2n[nH]c3ccc(O[C@H](C)c4c(C)cnnc4C)cc23)cc(C#N)n1 [Example 69, 4-[5-[(1R)-1-(3,5-Dimethylpyridazin-4-yl)ethoxy]-1H-indazol-3-yl]-6-methyl-pyridine-2-carbonitrile]
0.1 to 100 | 0.1 to 100 | 0.1 to 100 | 0.1 to 100 | – | COc1cc2[nH]nc(-c3cc(C)c(OC)c(C#N)c3)c2cc1O[C@H](C)c1c(C)cnnc1C [Example 116, (R)-5-(5-(1-(3,5-dimethylpyridazin-4-yl)ethoxy)-6-methoxy-1H-indazol-3-yl)-2-methoxy-3-methylbenzonitrile]
> 1000 | 250 to 1000 | > 1000 | > 1000 | – | Cc1cnnc(C)c1[C@H](C)Oc1ccc2[nH]nc(-c3cc(C#N)cc(N4CCN(C)CC4)c3)c2c1 [Example 66, 3-[5-[(1S)-1-(3,5-dimethylpyridazin-4-yl)ethoxy]-1H-indazol-3-yl]-5-(4-methylpiperazin-1-yl)benzonitrile]
0.1 to 100 | 0.1 to 100 | 100 to 250 | 100 to 250 | – | Cc1cnnc(C)c1[C@@H](C)Oc1ccc2[nH]nc(-c3cnc(O[C@@H]4CCOC4)c(C#N)c3)c2c1 [Example 128, 5-(5-((R)-1-(3,5-dimethylpyridazin-4-yl)ethoxy)-1H-indazol-3-yl)-2-(((R)-tetrahydrofuran-3-yl)oxy)nicotinonitrile]
250 to 1000 | 0.1 to 100 | > 1000 | > 1000 | – | COc1cc(OC(F)(F)F)cc(-c2n[nH]c3ccc(O[C@H](C)c4c(C)cnnc4C)cc23)c1 [Example 63, 5-[(1R)-1-(3,5-dimethylpyridazin-4-yl)ethoxy]-3-[3-methoxy-5-(trifluoromethoxy)phenyl]-1H-indazole]
